Experiments:
[1] = tested on: proinflammatory cytokines; experiment: Proinflammatory cytokines in SARS-CoV-2-infected Vero E6 cells (RT-qPCR, ELISA); format: cell-based, African green monkey; conditions: 20 μM
[2] = tested on: MARC; experiment: Cytotoxicity, MTT assay, MARC; format: cell-based, African green monkey
Experimental: The cytotoxic effects of the chemicals and their solvents were tested by the MTT assay,[44] and its procedure is described in Supplementary Information.
The cytotoxic effects of the chemicals and their solvents used were tested by the MTT assay as described previously.^10 In brief, the chemicals were dissolved in DMSO to a stock concentration of 10 mM, and then freshly serially diluted in serum-free medium before being added to cell culture monolayers. The absorbance was measured using an enzyme-linked immunosorbent assay (ELISA) reader at an optical density (OD) of 570 nm. The percent cell viability was calculated using the following formula, [(ODsample˗ODblank)/(ODcontrol˗ODblank)] × 100%. According to the cell cytotoxicity data, dose-response curves were generated for the calculation of CC50 using GraphPad Prism software version 8.4.2.

[3] = tested on: LD lipolysis (FFA and glycerol release); experiment: Intracellular FFA and glycerol quantification in IAV-infected A549 cells; format: cell-based, human; conditions: 20 µM at 12 hpi, vs vehicle-treated control
Experimental: (§1) Cells were grown in 6- or 12-well plates or 8-well chamber slides to the desired confluency and then washed twice with phosphate-buffered saline (PBS, pH 7.4). They were then mock-inoculated with medium only or virus-inoculated with various multiplicities of infection (MOI): MOI of 0.01 or 1 FFU/cell for IAV, and MOI of 0.01 or 0.1 FFU/cell for SARS-CoV-2, BCoV, PEDV, PRRSV, and PSaV. Thereafter, each inoculum was absorbed for 1 h, and the cells were washed twice with PBS (pH 7.4). As shown in Supplementary Table 4, further treatments and incubations varied dependent on the virus species used. […]
(§2) To determine intracellular levels of free fatty acids, the different cultured cells infected with or without the seven target RNA viruses, or treated with or without different concentrations of chemicals, and the lung samples from experimental mice and hamsters were prepared as described above. The amount of intracellular free fatty acid was determined using a quantification kit from BioVision according to the manufacturer’s recommendations.^31 Briefly, 5x10^6 cells or 100 mg of lung tissue were mixed with 500 μL of chloroform-Triton X-100 (1% Triton X-100 in pure chloroform) with vortexing at five-minute intervals for 20 min at 20°C. […]

[4] = tested on: Porcine epidemic diarrhea coronavirus (QIAP1401); experiment: In vitro antiviral activity against PEDV in Vero E6 cells (CCIF viral yield); format: cell-based; conditions: for IC50: Vero E6 cells
Experimental: Cells were grown in 6- or 12-well plates or 8-well chamber slides to the desired confluency and then washed twice with phosphate-buffered saline (PBS, pH 7.4). They were then mock-inoculated with medium only or virus-inoculated with various multiplicities of infection (MOI): MOI of 0.01 or 1 FFU/cell for IAV, and MOI of 0.01 or 0.1 FFU/cell for SARS-CoV-2, BCoV, PEDV, PRRSV, and PSaV. Thereafter, each inoculum was absorbed for 1 h, and the cells were washed twice with PBS (pH 7.4). As shown in Supplementary Table 4, further treatments and incubations varied dependent on the virus species used. Cells treated with PKA inhibitor H89 (5 μM or 50 μM concentration) or vehicle-treated immediately after absorption of IAV at an MOI of 1 FFU or SARS-CoV-2 at an MOI of 0.1 FFU were incubated for 24 and 36 h, respectively, and each cell lysate was used for the detection of HSL and pHSL by western blot analysis as described below. Cells treated with lipase inhibitors at the median incubation time of IAV or SARS-CoV-2 as described in the above condition were supplemented with LA, OA, or PA at 100 µM concentration and left incubation for further median incubation time. The cells were used to assess levels of intracellular TAGs, cholesterol, FFAs, glycerol, FAO, proinflammatory cytokines as well as viral genome copy numbers and virus titers as described below and in Supplementary Information.
To determine the antiviral effects of chemicals, serial 10-fold dilutions of each cell culture supernatant after three cycles of freezing and thawing cycles were prepared in appropriate medium supplemented with 100 U/mL penicillin and 100 μg/mL streptomycin as described above. To determine the viral infectivity titer in lung tissues from the hamsters challenged with or without SARS-CoV-2, or administered with or without inhibitors as described above, aseptically sampled lungs from five hamsters per group at day five post-virus infection were harvested. Cleared supernatants from lung tissue as produced from IAV-infected mice above were serially tenfold-diluted with virus growth medium. […] The cells were washed twice with PBS (pH 8.0), mounted with 60% glycerol, and observed byr inverted fluorescence microscopy. The number of cells showing a viral antigen-positive signal at the endpoint dilution were counted. IC50 was calculated using GraphPad Prism software version 8.4.2. […] CC50 data from the MTT assay and IC50 from the IF assay were both calculated using GraphPad Prism software version 8.4.2.

[5] = tested on: LD lipolysis (FFA and glycerol release); experiment: Intracellular FFA and glycerol quantification in SARS-CoV-2-infected Vero E6 cells; format: cell-based, African green monkey; conditions: SARS-CoV-2-infected cells; 20 µM at 18 hpi; vs vehicle-treated control
Experimental: as §1, §2

SMILES | levels of TNF-α, IL-6, and MCP-1 [1] | CC50 [2] [µM] | levels of intracellular FFAs and glycerol [3] | SI (CC50/IC50) [4] | IC50 [4] [µM] | levels of intracellular FFAs and glycerol [5]
CN(C)C(=O)Nc1cccc(-c2ccc(N(C)C)cc2)c1 [Atglistatin] | markedly reduced | 212 ± 3.5 | significantly reduced | 116 | 1.96 ± 0.14 | significantly reduced
COc1nn(-c2ccc(NC(=O)OCc3ccccc3)c(C)c2)c(=O)o1 [CAY10499] | markedly reduced | 101 ± 4 | significantly reduced | 30 | 3.19 ± 0.42 | significantly reduced

Source: PMC9575645 (Signal Transduction and Targeted Therapy, 2022)
